From patent US20250115583A1, “BICYCLIC INDAZOLE GLUCOCORTICOID RECEPTOR ANTAGONISTS” (Corcept Therapeutics Incorporated, priority 2021, published 2025)

Target: glucocorticoid receptor (Homo sapiens (Human), UniProt P04150)
Assay: HepG2 TAT assay: inhibition of dexamethasone-induced tyrosine aminotransferase (TAT) activity
Type: cell-based
Conditions: HepG2 cells, challenge of 100 nM dexamethasone, 18-24 hr; IC50 converted to Ki by Cheng and Prusoff equation
In short: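 Cells lysed 15 min at 4 °C; TAT enzyme reaction 2 h at 37 °C, stopped with KOH, 30 min further at 37 °C. Inhibition fitted to 4-parameter logistic.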

glucocorticoid receptor, sequence (P04150 whole entry): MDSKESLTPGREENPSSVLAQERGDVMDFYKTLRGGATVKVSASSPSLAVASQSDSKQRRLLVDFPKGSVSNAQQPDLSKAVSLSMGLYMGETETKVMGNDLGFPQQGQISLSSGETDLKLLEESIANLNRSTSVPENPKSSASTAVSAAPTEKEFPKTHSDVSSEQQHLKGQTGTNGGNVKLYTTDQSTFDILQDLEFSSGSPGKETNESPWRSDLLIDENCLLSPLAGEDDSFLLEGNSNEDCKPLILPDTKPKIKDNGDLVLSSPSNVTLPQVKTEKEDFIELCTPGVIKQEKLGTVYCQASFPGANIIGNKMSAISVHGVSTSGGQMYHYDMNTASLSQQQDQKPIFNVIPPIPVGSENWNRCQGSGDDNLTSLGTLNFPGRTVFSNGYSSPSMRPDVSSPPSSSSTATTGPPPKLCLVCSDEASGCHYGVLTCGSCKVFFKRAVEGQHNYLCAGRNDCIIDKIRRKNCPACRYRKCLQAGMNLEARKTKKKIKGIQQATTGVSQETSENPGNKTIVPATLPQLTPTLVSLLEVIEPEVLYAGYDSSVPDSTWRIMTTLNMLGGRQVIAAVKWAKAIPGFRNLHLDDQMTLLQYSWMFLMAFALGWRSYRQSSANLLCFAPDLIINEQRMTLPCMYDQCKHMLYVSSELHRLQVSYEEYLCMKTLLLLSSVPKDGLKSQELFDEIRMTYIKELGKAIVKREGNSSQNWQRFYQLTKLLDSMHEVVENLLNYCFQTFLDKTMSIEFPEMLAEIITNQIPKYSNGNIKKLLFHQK

Row | SMILES | Ki
1 | Cc1cc2c(cnn2-c2ccc(F)cc2)cc1C12CC(Oc3ccccn3)CC1CN(S(C)(=O)=O)C2 (stereo not shown) [Example 41] | 110 nM
2 | Cc1cc2c(cnn2-c2ccc(F)cc2)cc1C12CC(Oc3cccnc3)CC1CN(S(C)(=O)=O)C2 (stereo not shown) [Example 42] | 260 nM
3 | CCCn1cc(S(=O)(=O)N2CC3CC(Oc4ccccc4)CC3(c3cc4cnn(-c5ccc(F)cc5)c4cc3C)C2)cn1 (stereo not shown) [Example 43] | 41 nM
4 | Cc1cc2c(cnn2-c2ccc(F)cc2)cc1C12CC(Oc3ccccc3)CC1CN(S(=O)(=O)c1cnn(C)c1)C2 (stereo not shown) [Example 44] | 370 nM
5 | Cc1cc2c(cnn2-c2ccc(F)cc2)cc1C12CC(Oc3ccccc3)CC1CN(C(=O)OC(C)(C)C)C2 (stereo not shown) [Example 45] | 96 nM
6 | Cc1cc2c(cnn2-c2ccc(F)cc2)cc1C12CC(c3ccccc3)CC1CN(S(C)(=O)=O)C2 (stereo not shown) [Example 46, 1-(4-fluorophenyl)-6-methyl-5-(2-(methylsulfonyl)-5-phenylhexahydrocyclopenta[c]pyrrol-3a(1H)-yl)-1H-indazole] | 87 nM
7 | Cc1cc2c(cnn2-c2ccc(F)cc2)cc1C12CN(S(=O)(=O)c3cnn(C)n3)CC1C2CO (stereo not shown) [Example 47, (1-(1-(4-fluorophenyl)-6-methyl-1H-indazol-5-yl)-3-((2-methyl-2H-1,2,3-triazol-4-yl)sulfonyl)-3-azabicyclo[3.1.0]hexan-6-yl)methanol] | 270 nM
8 | Cc1cc2c(cnn2-c2ccc(F)cc2)cc1C12CN(S(=O)(=O)c3cnn(C)n3)CC1C2COc1ccccn1 (stereo not shown) [Example 50, 1-(4-fluorophenyl)-6-methyl-5-(3-((2-methyl-2H-1,2,3-triazol-4-yl)sulfonyl)-6-((pyridin-2-yloxy)methyl)-3-azabicyclo[3.1.0]hexan-1-yl)-1H-indazole] | 680 nM
9 | Cc1cc2c(cnn2-c2ccc(F)cc2)cc1[C@]12CN(S(=O)(=O)c3cnn(C)n3)C[C@H]1[C@@H]2C(=O)NC1CCC1 [Example 60] | 200 nM
10 | Cc1cc2c(cnn2-c2ccc(F)cc2)cc1[C@@]12CN(S(=O)(=O)c3cnn(C)n3)C[C@@H]1[C@H]2C(=O)NC1CCCC1 [Example 61] | 200 nM
11 | Cc1cc2c(cnn2-c2ccc(F)cc2)cc1[C@]12CN(S(=O)(=O)c3cnn(C)n3)C[C@H]1[C@@H]2C(=O)Nc1ccccc1 [Example 62] | 38 nM
12 | Cc1cccc(NC(=O)[C@H]2[C@@H]3CN(S(=O)(=O)c4cnn(C)n4)C[C@@]32c2cc3cnn(-c4ccc(F)cc4)c3cc2C)c1 [Example 63] | 88 nM
13 | Cc1cc2c(cnn2-c2ccc(F)cc2)cc1[C@]12CN(S(=O)(=O)c3cnn(C)n3)C[C@H]1[C@@H]2C(=O)N(C)c1ccccc1 [Example 64] | 130 nM
14 | CCNC(=O)[C@@H]1[C@H]2CN(S(=O)(=O)c3cnn(C)n3)C[C@]21c1cc2cnn(-c3ccc(F)cc3)c2cc1C [Example 65] | 430 nM
15 | Cc1cc2c(cnn2-c2ccc(F)cc2)cc1[C@@]12CN(S(=O)(=O)c3cnn(C)n3)C[C@@H]1[C@H]2C(=O)NCC(C)C [Example 66] | 150 nM
16 | Cc1cc2c(cnn2-c2ccc(F)cc2)cc1[C@@]12CN(S(C)(=O)=O)C[C@@H]1[C@H]2C(=O)Nc1ccc(F)cn1 [Example 67] | 84 nM
17 | Cc1cc2c(cnn2-c2ccc(F)cc2)cc1[C@@]12CN(S(=O)(=O)c3cnn(C)n3)C[C@@H]1[C@H]2c1ccccc1 [Example 70] | 24 nM
18 | Cc1cc2c(cnn2-c2ccc(F)cc2)cc1[C@@]12CN(S(=O)(=O)c3cnn(C)n3)C[C@@H]1[C@H]2c1ccccc1 [Example 71] | 15 nM
19 | Cc1cc2c(cnn2-c2ccc(F)cc2)cc1[C@]12CN(S(=O)(=O)c3cnn(C)n3)C[C@H]1[C@@H]2c1ccccc1 [Example 72] | 160 nM
20 | Cc1cc2c(cnn2-c2ccc(F)cc2)cc1[C@]12CN(S(=O)(=O)c3cnn(C)c3)C[C@H]1[C@@H]2c1ccccc1 [Example 73] | 36 nM
21 | CCn1ncc(S(=O)(=O)N2C[C@H]3[C@H](c4ccccc4)[C@@]3(c3cc4cnn(-c5ccc(F)cc5)c4cc3C)C2)n1 [Example 74] | 15 nM
22 | CCCn1ncc(S(=O)(=O)N2C[C@H]3[C@H](c4ccccc4)[C@@]3(c3cc4cnn(-c5ccc(F)cc5)c4cc3C)C2)n1 [Example 75] | 25 nM
23 | Cc1cc2c(cnn2-c2ccc(F)cc2)cc1[C@@]12CN(S(C)(=O)=O)C[C@@H]1[C@H]2c1ccccc1 [Example 77] | 39 nM
24 | Cc1cc2c(cnn2-c2ccc(F)cc2)cc1[C@]12CN(S(=O)(=O)c3cncc(F)c3)C[C@H]1[C@@H]2c1ccccc1 [Example 78] | 25 nM
25 | COCCn1cc(S(=O)(=O)N2C[C@H]3[C@H](c4ccccc4)[C@@]3(c3cc4cnn(-c5ccc(F)cc5)c4cc3C)C2)cn1 [Example 79] | 33 nM
26 | Cc1cc2c(cnn2-c2ccc(F)cc2)cc1[C@]12CN(S(=O)(=O)c3cnn(C(C)C)n3)C[C@H]1[C@@H]2c1ccccc1 [Example 80] | 23 nM

Row | SMILES | Ki
27 | Cc1cc2c(cnn2-c2ccc(F)cc2)cc1[C@@]12CN(S(=O)(=O)C3CC3)C[C@@H]1[C@H]2c1ccccc1 [Example 85] | 21 nM
28 | COCCS(=O)(=O)N1C[C@@H]2[C@@H](c3ccccc3)[C@]2(c2cc3cnn(-c4ccc(F)cc4)c3cc2C)C1 [Example 86] | 32 nM
29 | Cc1cc2c(cnn2-c2ccc(F)cc2)cc1[C@]12CN(S(=O)(=O)N3CCOCC3)C[C@H]1[C@@H]2c1ccccc1 [Example 87] | 20 nM
30 | Cc1cc2c(cnn2-c2ccc(F)cc2)cc1[C@]12CN(S(=O)(=O)C3CCOCC3)C[C@H]1[C@@H]2c1ccccc1 [Example 88] | 47 nM
31 | Cc1cc2c(cnn2-c2ccc(F)cc2)cc1[C@@]12CN(S(=O)(=O)c3ccccc3)C[C@@H]1[C@H]2c1ccccc1 [Example 89] | 17 nM
32 | Cc1cc2c(cnn2-c2ccc(F)cc2)cc1[C@@]12CN(S(=O)(=O)c3cccnc3)C[C@@H]1[C@H]2c1ccccc1 [Example 90] | 14 nM
33 | Cc1cc2c(cnn2-c2ccc(F)cc2)cc1[C@@]12CN(S(=O)(=O)c3cncs3)C[C@@H]1[C@H]2c1ccccc1 [Example 91] | 22 nM
34 | CCn1ccc(S(=O)(=O)N2C[C@@H]3[C@@H](c4ccccc4)[C@]3(c3cc4cnn(-c5ccc(F)cc5)c4cc3C)C2)n1 [Example 92] | 9.5 nM
35 | Cc1cc2c(cnn2-c2ccc(F)cc2)cc1[C@]12CN(S(=O)(=O)CC3CC3)C[C@H]1[C@@H]2c1ccccc1 [Example 93] | 29 nM
36 | CCS(=O)(=O)N1C[C@@H]2[C@@H](c3ccccc3)[C@]2(c2cc3cnn(-c4ccc(F)cc4)c3cc2C)C1 [Example 94] | 31 nM
37 | Cc1cc2c(cnn2-c2ccc(F)cc2)cc1[C@]12CN(S(=O)(=O)c3cnn(C)c3)C[C@H]1[C@@H]2c1cccc(Cl)c1 [Example 96] | 110 nM
38 | Cc1cc2c(cnn2-c2ccc(F)cc2)cc1[C@]12CN(S(=O)(=O)c3cn(C)nn3)C[C@H]1[C@@H]2c1ccccc1 [Example 97] | 32 nM
39 | Cc1cc2c(cnn2-c2ccc(F)cc2)cc1[C@@]12CN(S(=O)(=O)NCC(C)C)C[C@@H]1[C@H]2c1ccccc1 [Example 100] | 82 nM
40 | Cc1cc2c(cnn2-c2ccc(F)cc2)cc1[C@@]12CN(S(=O)(=O)C(C)C)C[C@@H]1[C@H]2c1ccccc1 [Example 101] | 41 nM
41 | Cc1cc2c(cnn2-c2ccc(F)cc2)cc1[C@@]12CN(S(=O)(=O)N3CCCCC3)C[C@@H]1[C@H]2c1ccccc1 [Example 102] | 26 nM
42 | Cc1cc2c(cnn2-c2ccc(F)cc2)cc1[C@@]12CN(S(=O)(=O)N3CC(C#N)C3)C[C@@H]1[C@H]2c1ccccc1 [Example 103] | 27 nM
43 | Cc1cc2c(cnn2-c2ccc(F)cc2)cc1[C@@]12CN(S(=O)(=O)CC(C)C)C[C@@H]1[C@H]2c1ccccc1 [Example 104] | 30 nM
44 | Cc1cc2c(cnn2-c2ccc(F)cc2)cc1[C@@]12CN(S(=O)(=O)N3CCC3)C[C@@H]1[C@H]2c1ccccc1 [Example 105] | 14 nM
45 | CNS(=O)(=O)N1C[C@@H]2[C@@H](c3ccccc3)[C@]2(c2cc3cnn(-c4ccc(F)cc4)c3cc2C)C1 [Example 106] | 55 nM
46 | Cc1cc2c(cnn2-c2ccc(F)cc2)cc1[C@@]12CN(S(=O)(=O)CC3CCOCC3)C[C@@H]1[C@H]2c1ccccc1 [Example 107] | 32 nM
47 | Cc1cc2c(cnn2-c2ccc(F)cc2)cc1[C@@]12CN(S(=O)(=O)N(C)C)C[C@@H]1[C@H]2c1ccccc1 [Example 108] | 16 nM
48 | COC1CCN(S(=O)(=O)N2C[C@@H]3[C@@H](c4ccccc4)[C@]3(c3cc4cnn(-c5ccc(F)cc5)c4cc3C)C2)CC1 [Example 109] | 13 nM
49 | Cc1cc2c(cnn2-c2ccc(F)cc2)cc1C12CN(S(=O)(=O)c3cnn(C)n3)CC1C2c1ncco1 (stereo not shown) [Example 133, 2-(1-(1-(4-fluorophenyl)-6-methyl-1H-indazol-5-yl)-3-((2-methyl-2H-1,2,3-triazol-4-yl)sulfonyl)-3-azabicyclo[3.1.0]hexan-6-yl)oxazole] | 260 nM
50 | Cc1cc2c(cnn2-c2ccc(F)cc2)cc1[C@@]12CN(S(=O)(=O)c3cnn(C)n3)C[C@@H]1[C@H]2c1nc2ccccc2o1 [Example 134, 2-(1-(1-(4-fluorophenyl)-6-methyl-1H-indazol-5-yl)-3-((2-methyl-2H-1,2,3-triazol-4-yl)sulfonyl)-3-azabicyclo[3.1.0]hexan-6-yl)benzo[d]oxazole] | 55 nM
51 | Cc1cc2c(cnn2-c2ccc(F)cc2)cc1[C@]12CN(C(=O)c3cnnn3C)C[C@H]1[C@@H]2c1ccccc1 [Example 144, (1-(1-(4-fluorophenyl)-6-methyl-1H-indazol-5-yl)-6-phenyl-3-azabicyclo[3.1.0]hexan-3-yl)(1-methyl-1H-l,2,3-triazol-5-yl)methanone] | 120 nM
52 | Cc1cc2c(cnn2-c2ccc(F)cc2)cc1[C@]12CN(C(=O)c3cn(C)nn3)C[C@H]1[C@@H]2c1ccccc1 [Example 147, (1-(1-(4-fluorophenyl)-6-methyl-1H-indazol-5-yl)-6-phenyl-3-azabicyclo[3.1.0]hexan-3-yl)(1-methyl-1H-l,2,3-triazol-4-yl)methanone] | 37 nM
